Assays:
[1] = Anti-cholinergic side-effect: inhibition of carbachol-stimulated salivation in the rat; parameters: species or system Sprague-Dawley rats; conditions: in vivo, sc; for ED50 at 1 h: administered subcutaneously, carbachol 0.6 mg/kg intraperitoneally after 1 hour, read-out: Salivation-inhibiting action, ED 50; for selectivity ratio: subcutaneously, ratio of salivation-inhibiting to secretion-inhibiting dose, read-out: Salivation-inhibiting action, ED 50/ED 0.75
Experimental: (§1) After 1 hour, the pupil diameter is measured. The animals are then given 0.6 mg/kg of carbachol intraperitoneally. After 5 minutes, the saliva secreted as a result of stimulation by carbachol is blotted up with 4 cm wide strips of universal indicator paper (from Merck). The surface area of the paper colored blue by the alkaline saliva serves as a measure of the salivary secretion. The test substance is taken to inhibit salivary secretion if the blue area of the paper is more than 50% smaller than in the case of the controls. Evaluation of the linear relationships between the logarithms of the dose and the frequency of inhibition of salivation is carried out alternatively by Probit analysis.

[2] = test system: gastric acid secretion; conditions: for ED (pH increase of 0.75): Rattus norvegicus, sc, 1 h, read-out: Inhibition of gastric acid secretion, ED 0.75; for Inhibition of gastric acid secretion, R.E. (relative effectiveness): rat, subcutaneously, relative to pirenzepine = 1.0
Experimental: The inhibition of gastric acid secretion manifests itself in a rise in the pH of the gastric mucosa. It is tested on groups of 5 conscious female Sprague-Dawley rats (160-180 g). The animals are kept without food (but with water ad libitum) for 48 hours and are then pretreated with varying doses of the test substances, administered subcutaneously. After 1 hour, they are narcotized with Na hexobarbital (46.4 mg/kg, given intravenously). A pH electrode (Philips Special Electrode, type CJP) is then introduced into the stomach and the pH at the surface of the gastric mucosa is measured (pH in the untreated animals is 1.40±0.02; N=200). The ED 0.75, ie. the dose which causes an increase in pH averaging 0.75, compared to the pH in the untreated control animals, is determined from the linear regression between logarithm of administered dose and increase in pH.

[3] = test system: ulcerous lesions; experiment: Anti-ulcerogenic effect in the rat (reserpine/indomethacin/cold induced ulcers); format: in vivo, Sprague-Dawley rats; conditions: for ED50: po, 6 h, administered orally, dose which reduces the ulcerated surface area by 50%, read-out: Anti-ulcerogenic effect, ED 50%; for Anti-ulcerogenic effect, R.E. (relative effectiveness): orally, relative to pirenzepine = 1.0
Experimental: To examine the anti-ulcerogenic effect, groups of 10 female Sprague-Dawley rats (weighing 160-180 g) are given 1 mg/kg of reserpine intraperitoneally, and are then left for 18 hours without food (but with water ad libitum). After this time, the animals are given 21.5 mg/kg of indomethacin intraperitoneally and the test substance orally; they are then kept for 6 hours at 8° C., after which they are killed. The stomachs are removed and the surface area of ulcerous lesions is determined.

[4] = test system: pupil diameter; experiment: Anti-cholinergic side-effect: mydriasis (pupil diameter) in the rat; format: in vivo, Sprague-Dawley rats; conditions: administered subcutaneously, 1 hour, dose which increases the pupil diameter by 2 mm
Experimental: as §1, with “To determine anti-cholinergic side-effects (mydriasis, inhibition of salivation), groups of from 5 to 10 female Sprague-Dawley rats (160-200 g) are given the test substance subcutaneously. After 1” for “After 1”, “Probit analysis. The ED 50 is taken to be the dose at which the relative frequency of inhibition of salivation is 50%.” for “Probit analysis.”
(§2) If there is a mydriatic effect, there is a linear regression between the logarithm of the dose and the increase in pupil diameter in mm, from which the ED 2 mm, ie. the dose which increases the pupil diameter by 2 mm, is calculated.

[5] = as above; format: in vivo, Sprague-Dawley rats; conditions: in vivo, sc, subcutaneously, ratio of mydriatic to secretion-inhibiting dose, read-out: Mydriatic action, ED 2 mm / ED 0.75
Experimental: as §1, with “To determine anti-cholinergic side-effects (mydriasis, inhibition of salivation), groups of from 5 to 10 female Sprague-Dawley rats (160-200 g) are given the test substance subcutaneously. After 1” for “After 1”, “Probit analysis. The ED 50 is taken to be the dose at which the relative frequency of inhibition of salivation is 50%.” for “Probit analysis.”
as §2

Compound	ED50 at 1 h [1]	ED (pH increase of 0.75) [2]	ED50 [3]	Mydriatic action, ED 2 mm [4]	selectivity ratio [1]	Inhibition of gastric acid secretion, R.E. (relative effectiveness) [2]	Anti-ulcerogenic effect, R.E. (relative effectiveness) [3]	selectivity ratio [5]
CN1CCN(CC(=O)N2c3ccccc3C(=O)Nc3cccnc32)CC1 [Pirenzepine, 5,11-dihydro-11-[(4-methyl-piperazin-1-yl)-acethyl]-6H-pyrido-[2,3,b][1,4]-benzodiazepin-6-one, reference compound]	2 mg/kg	0.086 mg/kg	6.5 mg/kg	1.6 mg/kg	–	–	–	–
CN1CCN(C(=O)/C=C2/c3ccccc3NC(=O)c3ccccc32)CC1 [Example 1 cis, cis-11-(4-methyl-piperazin-1-yl)-carboxamidomethylene-5,6-dihydro-morphanthridin-6-one]	50 mg/kg	0.032 mg/kg	1.7 mg/kg	198 mg/kg	1600	2.7	3.8	6200
CN1CCN(C(=O)C=C2c3ccccc3NC(=O)c3ccccc32)CC1 (mixture of isomers) [Example 1 cis/trans, cis,trans-11-(4-methyl-piperazin-1-yl)-carboxamidomethylene-5,6-dihydromorphanthridin-6-one]	99 mg/kg	0.055 mg/kg	2.1 mg/kg	> 215 mg/kg	1800	> 1.6	3.1	> 3900
